Assay results: ChEMBL document CHEMBL3991601, “The target landscape of clinical kinase drugs” (Science, 2017)
Active and inactive are the calls of the source. For most assays here, no stated cut-off is given here; in the data, actives have a measured Kd and inactives only a lower limit.

Legend:
Actin-related protein 2 = Actin-related protein 2 (Homo sapiens, UniProt P61160)
Activin receptor type-1 = target: T1, Activin receptor type-1 (Homo sapiens, UniProt Q04771)
T1 sequence (Q04771 whole entry): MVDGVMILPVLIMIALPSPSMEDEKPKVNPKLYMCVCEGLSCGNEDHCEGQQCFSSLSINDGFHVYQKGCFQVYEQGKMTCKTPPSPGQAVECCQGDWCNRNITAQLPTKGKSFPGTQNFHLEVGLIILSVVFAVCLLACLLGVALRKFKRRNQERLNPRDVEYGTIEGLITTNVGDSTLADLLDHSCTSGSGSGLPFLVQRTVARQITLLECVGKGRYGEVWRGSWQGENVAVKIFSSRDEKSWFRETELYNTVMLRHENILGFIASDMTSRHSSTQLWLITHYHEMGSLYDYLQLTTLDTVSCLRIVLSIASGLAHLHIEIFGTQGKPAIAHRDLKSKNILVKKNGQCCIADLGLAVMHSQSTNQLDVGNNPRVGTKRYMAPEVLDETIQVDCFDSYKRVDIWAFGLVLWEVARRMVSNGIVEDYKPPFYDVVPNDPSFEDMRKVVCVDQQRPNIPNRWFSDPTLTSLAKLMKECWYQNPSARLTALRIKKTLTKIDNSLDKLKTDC

[1] = target: Calcium/calmodulin-dependent protein kinase kinase 2 (Homo sapiens, UniProt Q96RR4)
[2] = target: Serine/threonine-protein kinase MRCK beta (Homo sapiens, UniProt Q9Y5S2)
Sequence of Serine/threonine-protein kinase MRCK beta (Q9Y5S2 whole entry): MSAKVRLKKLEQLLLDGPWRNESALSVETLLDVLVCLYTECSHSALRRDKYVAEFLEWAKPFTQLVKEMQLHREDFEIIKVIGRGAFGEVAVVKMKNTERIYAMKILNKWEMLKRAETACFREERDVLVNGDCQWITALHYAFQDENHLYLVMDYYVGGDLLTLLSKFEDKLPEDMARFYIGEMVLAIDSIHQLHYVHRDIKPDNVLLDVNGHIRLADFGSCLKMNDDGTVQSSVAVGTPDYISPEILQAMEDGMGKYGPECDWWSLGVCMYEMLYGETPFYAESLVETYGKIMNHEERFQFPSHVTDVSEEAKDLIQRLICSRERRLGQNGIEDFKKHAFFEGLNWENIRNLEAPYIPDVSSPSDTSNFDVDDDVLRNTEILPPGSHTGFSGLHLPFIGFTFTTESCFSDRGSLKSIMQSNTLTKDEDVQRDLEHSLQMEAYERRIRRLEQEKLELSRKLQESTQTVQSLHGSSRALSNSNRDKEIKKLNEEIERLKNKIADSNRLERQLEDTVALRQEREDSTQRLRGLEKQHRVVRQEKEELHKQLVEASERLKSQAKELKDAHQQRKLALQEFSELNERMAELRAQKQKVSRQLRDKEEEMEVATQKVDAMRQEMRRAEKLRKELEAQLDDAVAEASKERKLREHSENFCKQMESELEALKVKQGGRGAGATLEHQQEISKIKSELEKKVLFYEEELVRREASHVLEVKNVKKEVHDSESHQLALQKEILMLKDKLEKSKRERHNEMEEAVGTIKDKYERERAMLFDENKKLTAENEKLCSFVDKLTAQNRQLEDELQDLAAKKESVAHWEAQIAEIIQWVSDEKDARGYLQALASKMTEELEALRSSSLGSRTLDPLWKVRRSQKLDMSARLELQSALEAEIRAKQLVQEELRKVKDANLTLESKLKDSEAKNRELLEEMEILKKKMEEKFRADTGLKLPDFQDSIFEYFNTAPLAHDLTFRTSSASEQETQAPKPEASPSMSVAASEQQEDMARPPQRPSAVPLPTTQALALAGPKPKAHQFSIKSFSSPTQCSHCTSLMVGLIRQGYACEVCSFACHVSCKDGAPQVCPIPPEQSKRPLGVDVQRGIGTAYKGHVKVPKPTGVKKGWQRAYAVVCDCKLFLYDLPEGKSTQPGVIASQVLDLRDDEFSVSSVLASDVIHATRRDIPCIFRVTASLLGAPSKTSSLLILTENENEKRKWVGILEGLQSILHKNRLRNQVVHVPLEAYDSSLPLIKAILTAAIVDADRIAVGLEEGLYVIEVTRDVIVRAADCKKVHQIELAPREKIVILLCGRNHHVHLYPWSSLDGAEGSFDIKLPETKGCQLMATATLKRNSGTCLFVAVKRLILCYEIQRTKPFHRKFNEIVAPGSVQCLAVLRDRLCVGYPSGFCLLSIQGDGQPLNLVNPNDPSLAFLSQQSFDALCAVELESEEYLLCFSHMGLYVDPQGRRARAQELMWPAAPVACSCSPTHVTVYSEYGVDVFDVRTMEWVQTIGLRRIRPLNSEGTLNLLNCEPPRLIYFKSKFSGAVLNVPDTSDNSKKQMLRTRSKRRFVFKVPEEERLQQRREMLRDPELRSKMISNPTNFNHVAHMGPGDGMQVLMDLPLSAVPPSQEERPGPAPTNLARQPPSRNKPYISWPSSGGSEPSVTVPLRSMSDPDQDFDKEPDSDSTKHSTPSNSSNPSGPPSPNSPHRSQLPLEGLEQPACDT

[3] = target: Tyrosine-protein kinase Lyn (Homo sapiens, UniProt P07948)
Sequence of Tyrosine-protein kinase Lyn (P07948 whole entry): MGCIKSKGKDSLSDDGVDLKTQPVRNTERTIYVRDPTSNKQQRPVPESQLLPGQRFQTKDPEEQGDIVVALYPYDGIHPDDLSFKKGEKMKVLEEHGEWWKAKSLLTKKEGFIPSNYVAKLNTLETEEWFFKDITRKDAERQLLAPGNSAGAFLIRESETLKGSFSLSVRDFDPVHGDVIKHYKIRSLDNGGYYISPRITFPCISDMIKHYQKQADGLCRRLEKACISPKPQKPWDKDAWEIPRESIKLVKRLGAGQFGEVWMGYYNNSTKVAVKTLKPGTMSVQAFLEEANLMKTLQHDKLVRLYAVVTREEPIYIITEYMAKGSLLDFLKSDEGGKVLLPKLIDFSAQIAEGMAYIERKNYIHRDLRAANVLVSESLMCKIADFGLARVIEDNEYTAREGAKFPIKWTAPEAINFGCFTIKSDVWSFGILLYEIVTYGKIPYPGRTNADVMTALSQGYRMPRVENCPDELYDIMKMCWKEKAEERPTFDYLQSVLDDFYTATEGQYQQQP

Myosin-14 = Myosin-14 (Homo sapiens, UniProt Q7Z406)
Sequence of Myosin-14 (Q7Z406 whole entry): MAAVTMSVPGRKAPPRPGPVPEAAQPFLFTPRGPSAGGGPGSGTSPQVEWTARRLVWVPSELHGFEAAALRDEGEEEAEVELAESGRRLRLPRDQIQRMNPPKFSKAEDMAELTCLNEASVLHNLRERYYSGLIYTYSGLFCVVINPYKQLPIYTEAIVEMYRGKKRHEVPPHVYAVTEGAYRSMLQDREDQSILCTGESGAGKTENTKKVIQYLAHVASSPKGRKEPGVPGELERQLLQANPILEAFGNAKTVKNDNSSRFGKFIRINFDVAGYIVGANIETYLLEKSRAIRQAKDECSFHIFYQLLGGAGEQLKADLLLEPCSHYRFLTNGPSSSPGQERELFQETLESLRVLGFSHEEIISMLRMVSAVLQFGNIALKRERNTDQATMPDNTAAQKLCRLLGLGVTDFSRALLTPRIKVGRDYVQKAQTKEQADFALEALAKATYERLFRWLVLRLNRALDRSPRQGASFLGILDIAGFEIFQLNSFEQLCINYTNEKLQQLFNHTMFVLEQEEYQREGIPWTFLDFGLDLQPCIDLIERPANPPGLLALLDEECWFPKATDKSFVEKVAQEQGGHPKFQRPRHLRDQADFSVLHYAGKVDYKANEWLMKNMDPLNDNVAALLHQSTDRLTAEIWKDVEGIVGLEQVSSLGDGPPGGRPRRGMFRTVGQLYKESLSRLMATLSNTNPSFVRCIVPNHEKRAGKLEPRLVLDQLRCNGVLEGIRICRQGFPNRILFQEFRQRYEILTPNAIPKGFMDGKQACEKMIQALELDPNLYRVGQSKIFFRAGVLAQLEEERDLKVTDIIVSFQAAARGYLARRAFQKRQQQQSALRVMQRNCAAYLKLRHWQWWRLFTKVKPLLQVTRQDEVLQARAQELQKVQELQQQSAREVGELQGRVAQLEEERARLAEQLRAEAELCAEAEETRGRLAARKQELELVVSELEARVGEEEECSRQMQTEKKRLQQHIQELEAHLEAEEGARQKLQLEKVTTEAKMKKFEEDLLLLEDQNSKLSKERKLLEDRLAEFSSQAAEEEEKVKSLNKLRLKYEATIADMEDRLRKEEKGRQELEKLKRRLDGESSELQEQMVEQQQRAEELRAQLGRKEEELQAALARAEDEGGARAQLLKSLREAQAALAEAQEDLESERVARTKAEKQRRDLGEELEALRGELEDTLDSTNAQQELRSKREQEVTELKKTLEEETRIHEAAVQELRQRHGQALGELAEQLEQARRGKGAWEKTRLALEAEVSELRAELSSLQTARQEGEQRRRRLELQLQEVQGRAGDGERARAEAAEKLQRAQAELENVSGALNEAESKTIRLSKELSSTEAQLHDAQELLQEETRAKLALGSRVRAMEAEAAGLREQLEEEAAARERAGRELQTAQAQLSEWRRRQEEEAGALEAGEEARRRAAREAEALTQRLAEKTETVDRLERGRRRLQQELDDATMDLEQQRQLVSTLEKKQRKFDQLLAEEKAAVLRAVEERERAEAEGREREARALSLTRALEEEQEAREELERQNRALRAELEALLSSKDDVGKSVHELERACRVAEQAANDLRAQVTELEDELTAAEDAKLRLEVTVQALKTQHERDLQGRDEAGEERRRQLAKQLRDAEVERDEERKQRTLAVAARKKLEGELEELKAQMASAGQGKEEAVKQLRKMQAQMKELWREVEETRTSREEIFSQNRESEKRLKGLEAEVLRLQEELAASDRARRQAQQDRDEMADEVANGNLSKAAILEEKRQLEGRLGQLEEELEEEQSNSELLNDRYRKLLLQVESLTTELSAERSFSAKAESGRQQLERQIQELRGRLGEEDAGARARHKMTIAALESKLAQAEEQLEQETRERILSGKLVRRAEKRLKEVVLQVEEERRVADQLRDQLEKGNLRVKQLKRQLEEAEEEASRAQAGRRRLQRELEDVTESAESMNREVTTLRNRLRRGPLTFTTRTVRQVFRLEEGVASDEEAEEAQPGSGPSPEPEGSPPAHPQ

[4] = target: T2, Serine/threonine-protein kinase Nek3 (Homo sapiens, UniProt P51956)
T2 sequence (P51956 whole entry): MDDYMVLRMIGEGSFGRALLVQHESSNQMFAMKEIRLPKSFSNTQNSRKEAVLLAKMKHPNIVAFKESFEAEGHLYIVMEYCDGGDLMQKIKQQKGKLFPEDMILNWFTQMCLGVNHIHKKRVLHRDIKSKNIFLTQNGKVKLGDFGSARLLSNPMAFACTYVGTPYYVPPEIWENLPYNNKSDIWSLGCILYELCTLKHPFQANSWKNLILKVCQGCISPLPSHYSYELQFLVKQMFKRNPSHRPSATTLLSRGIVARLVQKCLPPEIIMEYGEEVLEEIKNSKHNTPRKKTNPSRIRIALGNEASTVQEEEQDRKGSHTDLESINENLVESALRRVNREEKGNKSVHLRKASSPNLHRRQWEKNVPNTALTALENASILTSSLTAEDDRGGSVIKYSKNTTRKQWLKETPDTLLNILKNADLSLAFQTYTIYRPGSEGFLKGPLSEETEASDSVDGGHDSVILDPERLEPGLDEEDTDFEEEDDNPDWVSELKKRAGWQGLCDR

TGF-beta receptor type-1 = target: T3, TGF-beta receptor type-1 (Homo sapiens, UniProt P36897)
T3 sequence (P36897 whole entry): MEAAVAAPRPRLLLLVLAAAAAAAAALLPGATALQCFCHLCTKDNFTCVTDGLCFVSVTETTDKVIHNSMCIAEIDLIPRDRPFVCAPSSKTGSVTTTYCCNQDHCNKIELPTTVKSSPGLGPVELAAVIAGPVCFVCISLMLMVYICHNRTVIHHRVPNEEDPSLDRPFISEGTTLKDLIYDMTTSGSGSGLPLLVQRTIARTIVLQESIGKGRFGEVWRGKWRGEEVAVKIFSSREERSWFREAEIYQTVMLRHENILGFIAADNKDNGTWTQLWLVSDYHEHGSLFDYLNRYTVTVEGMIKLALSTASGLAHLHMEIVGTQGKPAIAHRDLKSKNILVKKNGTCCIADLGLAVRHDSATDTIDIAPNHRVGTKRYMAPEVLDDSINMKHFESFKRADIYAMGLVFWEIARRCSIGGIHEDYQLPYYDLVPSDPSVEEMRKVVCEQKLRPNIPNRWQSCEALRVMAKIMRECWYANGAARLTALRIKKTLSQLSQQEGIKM

[5] = target: Mitogen-activated protein kinase 8 (Homo sapiens, UniProt P45983)
Sequence of Mitogen-activated protein kinase 8 (P45983 whole entry): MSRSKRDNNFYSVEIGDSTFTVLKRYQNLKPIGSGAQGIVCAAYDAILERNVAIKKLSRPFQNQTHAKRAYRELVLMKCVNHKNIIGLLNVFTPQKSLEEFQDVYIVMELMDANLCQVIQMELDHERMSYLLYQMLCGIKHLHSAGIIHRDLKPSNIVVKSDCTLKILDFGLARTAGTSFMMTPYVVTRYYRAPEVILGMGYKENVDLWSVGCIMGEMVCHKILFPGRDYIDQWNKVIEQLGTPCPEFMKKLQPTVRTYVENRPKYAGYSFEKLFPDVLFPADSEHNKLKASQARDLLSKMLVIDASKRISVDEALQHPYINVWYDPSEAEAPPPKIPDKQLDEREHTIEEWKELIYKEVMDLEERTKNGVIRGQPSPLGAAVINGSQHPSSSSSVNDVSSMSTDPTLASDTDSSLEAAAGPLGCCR

[6] = target: T4, Serine/threonine-protein kinase PLK4 (Homo sapiens, UniProt O00444)
T4 sequence (O00444 whole entry): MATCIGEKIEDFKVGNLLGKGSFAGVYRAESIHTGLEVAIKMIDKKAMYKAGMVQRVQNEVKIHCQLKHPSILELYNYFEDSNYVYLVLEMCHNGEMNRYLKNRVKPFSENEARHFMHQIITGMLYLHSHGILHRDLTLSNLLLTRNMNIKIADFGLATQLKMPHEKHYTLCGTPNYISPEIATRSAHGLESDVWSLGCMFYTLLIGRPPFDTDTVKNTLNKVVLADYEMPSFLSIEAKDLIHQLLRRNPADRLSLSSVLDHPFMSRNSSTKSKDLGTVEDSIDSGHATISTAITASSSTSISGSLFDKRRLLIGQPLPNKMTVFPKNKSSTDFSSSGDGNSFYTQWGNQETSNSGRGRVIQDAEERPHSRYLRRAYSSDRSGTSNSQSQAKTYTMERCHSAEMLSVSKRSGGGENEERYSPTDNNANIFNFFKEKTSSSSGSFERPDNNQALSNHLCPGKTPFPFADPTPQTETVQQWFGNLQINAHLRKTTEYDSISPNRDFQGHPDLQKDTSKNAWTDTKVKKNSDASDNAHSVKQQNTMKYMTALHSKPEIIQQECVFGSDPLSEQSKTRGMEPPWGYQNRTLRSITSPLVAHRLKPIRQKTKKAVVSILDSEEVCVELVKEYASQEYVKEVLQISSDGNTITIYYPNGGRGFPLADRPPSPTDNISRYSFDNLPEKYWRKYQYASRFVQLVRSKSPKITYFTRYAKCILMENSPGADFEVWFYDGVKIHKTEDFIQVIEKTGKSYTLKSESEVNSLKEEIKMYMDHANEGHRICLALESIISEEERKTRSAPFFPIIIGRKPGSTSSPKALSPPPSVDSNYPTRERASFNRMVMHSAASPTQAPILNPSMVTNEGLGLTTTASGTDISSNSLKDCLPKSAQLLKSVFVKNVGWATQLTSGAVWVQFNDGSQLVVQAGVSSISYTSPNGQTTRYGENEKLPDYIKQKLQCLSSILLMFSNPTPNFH

| SMILES | Kd (Actin-related protein 2) | Kd (Activin receptor type-1) | Kd [1] | Kd [2] | Kd [3] | Kd (Myosin-14) | Kd [4] | Kd (TGF-beta receptor type-1) | Kd [5] | Kd [6] |
| --- | --- | --- | --- | --- | --- | --- | --- | --- | --- | --- |
| CNC(=O)c1ccccc1Sc1ccc2c(/C=C/c3ccccn3)n[nH]c2c1 [AXITINIB] | > 30 µM (inactive) |  |  |  |  | > 30 µM (inactive) |  |  |  |  |
| NC(=O)Nc1cc(-c2cccc(F)c2)sc1C(=O)N[C@H]1CCCNC1 [AZD-7762] | > 30 µM (inactive) | > 30 µM (inactive) | > 30 µM (inactive) | > 30 µM (inactive) | 0.48 µM (active) | > 30 µM (inactive) | > 30 µM (inactive) | > 30 µM (inactive) | > 30 µM (inactive) | 0.722 µM (active) |
| COc1cc2ncnc(Oc3cccc(NC(=O)Nc4cc(C(C)(C)C(F)(F)F)on4)c3)c2cc1OC [CEP-32496] | > 30 µM (inactive) | > 30 µM (inactive) | > 30 µM (inactive) | > 30 µM (inactive) | 0.771 µM (active) | > 30 µM (inactive) | > 30 µM (inactive) | > 30 µM (inactive) | 1.47 µM (active) | > 30 µM (inactive) |
| Cc1cc(Nc2ncc(Cl)c(Nc3ccccc3S(=O)(=O)C(C)C)n2)c(OC(C)C)cc1C1CCNCC1 [CERITINIB] | > 30 µM (inactive) | > 30 µM (inactive) | 5.43 µM (active) | > 30 µM (inactive) | > 30 µM (inactive) | > 30 µM (inactive) | > 30 µM (inactive) | > 30 µM (inactive) | > 30 µM (inactive) | 7.1 µM (active) |
| COCC(=O)NC/C=C/c1ccc2ncnc(Nc3ccc(Oc4ccc(C)nc4)c(C)c3)c2c1 [CP-724714] | > 30 µM (inactive) | > 30 µM (inactive) | > 30 µM (inactive) | > 30 µM (inactive) | > 30 µM (inactive) | > 30 µM (inactive) | > 30 µM (inactive) | > 30 µM (inactive) | > 30 µM (inactive) | > 30 µM (inactive) |
| CC(C)(C)c1nc(-c2cccc(NS(=O)(=O)c3c(F)cccc3F)c2F)c(-c2ccnc(N)n2)s1 [DABRAFENIB] | > 30 µM (inactive) |  | > 30 µM (inactive) | > 30 µM (inactive) |  | > 30 µM (inactive) | > 30 µM (inactive) | 2.38 µM (active) | > 30 µM (inactive) | 0.52 µM (active) |
| Cn1cc(C2=C(c3cn(C4CCN(Cc5ccccn5)CC4)c4ccccc34)C(=O)NC2=O)c2ccccc21 [ENZASTAURIN] | > 30 µM (inactive) |  |  |  |  | > 30 µM (inactive) |  |  |  |  |
| CCn1cc(-c2ccnc3[nH]c(-c4cccc(CN(C)C)c4)cc23)c(-c2ccc(NC(=O)N(C)C)cc2)n1 [GSK-1070916] | > 30 µM (inactive) |  | > 30 µM (inactive) | > 30 µM (inactive) | > 30 µM (inactive) | > 30 µM (inactive) | > 30 µM (inactive) | 1.94 µM (active) |  |  |
| CC(=O)NCC(=O)N1[C@@H]2CC[C@H]1c1ccc(Nc3ncc(C(F)(F)F)c(NC4CCC4)n3)cc12 [PF-03814735] | > 30 µM (inactive) |  | 2.19 µM (active) | > 30 µM (inactive) | > 30 µM (inactive) |  | > 30 µM (inactive) | > 30 µM (inactive) |  |  |
| CNC(=O)c1cc(Oc2ccc(NC(=O)Nc3cc(C(C)(C)C)nn3-c3ccc4ncccc4c3)c(F)c2)ccn1 [REBASTINIB] | > 30 µM (inactive) | > 30 µM (inactive) | > 30 µM (inactive) | > 30 µM (inactive) |  | > 30 µM (inactive) | > 30 µM (inactive) | > 30 µM (inactive) |  | 4.09 µM (active) |
| O=C(NOCCO)c1cc(CN2OCCCC2=O)c(F)c(F)c1Nc1ccc(I)cc1F [RO-4987655] | > 30 µM (inactive) |  |  |  |  | > 30 µM (inactive) |  |  |  |  |

Now from value to compound:

| Kd (Actin-related protein 2) | Kd (Activin receptor type-1) | Kd [1] | Kd [2] | Kd [3] | Kd (Myosin-14) | Kd [4] | Kd (TGF-beta receptor type-1) | Kd [5] | Kd [6] | SMILES |
| --- | --- | --- | --- | --- | --- | --- | --- | --- | --- | --- |
| > 30 µM (inactive) | > 30 µM (inactive) | > 30 µM (inactive) | > 30 µM (inactive) | > 30 µM (inactive) | > 30 µM (inactive) | > 30 µM (inactive) | > 30 µM (inactive) |  |  | COc1cc(Nc2ncc3c(n2)-c2ccc(Cl)cc2C(c2c(F)cccc2OC)=NC3)ccc1C(=O)O [ALISERTIB] |
| > 30 µM (inactive) | 0.078 µM (active) | > 30 µM (inactive) | > 30 µM (inactive) |  | > 30 µM (inactive) |  | 0.077 µM (active) | 0.157 µM (active) | 0.021 µM (active) | O=C(Nc1c[nH]nc1-c1nc2cc(CN3CCOCC3)ccc2[nH]1)NC1CC1 [AT-9283] |
| > 30 µM (inactive) | > 30 µM (inactive) | > 30 µM (inactive) | > 30 µM (inactive) | > 30 µM (inactive) | > 30 µM (inactive) | > 30 µM (inactive) | > 30 µM (inactive) | > 30 µM (inactive) | > 30 µM (inactive) | C#Cc1cccc(Nc2ncnc3cc(OC)c(OCCCCCCC(=O)NO)cc23)c1 [CUDC-101] |
| > 30 µM (inactive) |  |  |  |  | > 30 µM (inactive) |  |  |  |  | C[C@@H](Oc1cc(-n2cnc3ccc(CN4CCN(C)CC4)cc32)sc1C(N)=O)c1ccccc1C(F)(F)F [GSK-461364] |
|  | 0.477 µM (active) |  | > 30 µM (inactive) | 3.54 µM (active) | > 30 µM (inactive) |  | > 30 µM (inactive) | > 30 µM (inactive) | > 30 µM (inactive) | CNC(=O)c1nn(C)c2c1C(C)(C)Cc1cnc(Nc3ccc(N4CCN(C)CC4)cc3)nc1-2 [MILCICLIB] |
| > 30 µM (inactive) | > 30 µM (inactive) |  | > 30 µM (inactive) |  | > 30 µM (inactive) | > 30 µM (inactive) | > 30 µM (inactive) |  |  | Cc1[nH]c(/C=C2\C(=O)Nc3ccccc32)c(C)c1CCC(=O)O [ORANTINIB] |
| > 30 µM (inactive) |  | > 30 µM (inactive) | > 30 µM (inactive) |  | > 30 µM (inactive) | > 30 µM (inactive) | 0.005 µM (active) |  |  | NC(=O)c1c(OCc2c(F)cc(Br)cc2F)nsc1NC(=O)NCCCCN1CCCC1 [OSI-632] |
| > 30 µM (inactive) |  |  |  |  | > 30 µM (inactive) | 29.9 µM (active) |  |  |  | N#CC[C@H](C1CCCC1)n1cc(-c2ncnc3[nH]ccc23)cn1 [RUXOLITINIB] |
